From US9732068B1, “System for crystalizing chemical compounds and methodologies for utilizing the same” (GenSyn Technologies, Inc., priority 2013, dated 2017)

Assay: Particle size measurement of crystallized compound with Horiba L950 particle size analyzer
Format: physicochemical
Conditions: for Span: Span=(D90-D10)/D50; for median particle size: final solution after crystallization in system 10
Description: Just as importantly as desirable small particle sizes is uniformity of particle size distributions (i.e., described by “D values”). D values of “D10”, “D50” and “D90” may be used to represent the midpoint and range of particle sizes of a given sample. The D10 particle size is the diameter at which 10% of a sample's mass is comprised of smaller particles. The D50 is the “mass median diameter” as it divides the sample equally by mass. The D90 particle size is the diameter at which 90% of a sample's mass is comprised of smaller particles.
System 10 of the present invention enables the production of customized particles within a narrow range of particle sizes. A common value used to express the uniformity of particle size distribution is the “span”. The span is a measure of how wide of a spectrum of particle sizes is produced. A system with a low relative span is desirable as it will produce more uniform distribution of particle sizes. Span can be calculated with the equation below: Span=(D90−D10)/D50.
Two grams of Paracetomol was dissolved in 100 grams of ethanol. Two grams of Soy Lecithin was dissolved in 50 grams of tetrahydrofuran (THF). The two solutions were combined and heated to 60° C. The solution was added to the input hopper of a dual piston pump 241. The pump 241 was fed into fluid input conduit 121 of the crystallization chamber 22 through a 0.006″ opening 701 of a nozzle 581. Heptane, at 10° C. was fed into fluid input conduits 122, 123 and 124 through 0.006″, 0.008″ and 0.008″ openings 702, 703, and 704 of nozzles 582, 583, and 584 respectively by an identical piston pump 242. The pressure on both pumps 241 and 242 was adjusted to 1000 psi. The mixed streams exited through fluid output conduit 32 and into fluid reservoir 34 containing approximately 100 ml of heptane. Approximately, the first third and last third of the mixture were discarded and only the central third collected in fluid reservoir 34. The final solution was sampled and the particle size was measured, in heptane, using a Horiba L950 particle size analyzer. The median particle size was about 1.3 microns. The Span was about 0.901.
Two grams of Carbamazepine was dissolved in 100 grams of ethanol. Two grams of Soy Lecithin was dissolved in 50 grams of THF. The two solutions were combined and heated to 60° C. The solution was added to the input hopper of a dual piston pump 241. The pump 241 was fed into fluid input conduit 121 of the crystallization chamber 22 through a 0.004″ opening 701 of a nozzle 581. Heptane, at 10° C. was fed into fluid input conduits 122, 123 and 124 through 0.006″, 0.007″ and 0.007″ openings 702, 703, and 704 of nozzles 582, 583, and 584 respectively by an identical piston pump 242. The pressure on both pumps 241 and 242 was adjusted to 1500 psi. The mixed streams exited through fluid output conduit 32 and into fluid reservoir 34 containing approximately 100 ml of heptane. Approximately, the first third and last third of the mixture were discarded and only the central third collected in fluid reservoir 34. The final solution was sampled and the particle size was measured, in heptane, using a Horiba L950 particle size analyzer. The median particle size was about 1.5 microns. The Span was about 0.916.
Two grams of Ketoprofen was dissolved in 100 grams of DMSO. Two grams of Sorbitan Monostearate was dissolved in 50 grams of THF. The two solutions were combined and heated to 60° C. The solution was added to the input hopper of a dual piston pump 241. The pump 241 was fed into fluid input conduits 121 of the crystallization chamber 22 through a 0.004″ opening 701 of a nozzle 581. DI water with 0.1% Polysorbate 20, at 5° C. was fed into fluid input conduits 122, 123 and 124 through 0.006″, 0.008″ and 0.008″ openings 702, 703, and 704 of nozzles 582, 583, and 584 respectively by an identical piston pump 242. The pressure on both pumps 241 and 242 was adjusted to 1500 psi. […]

| Span (measured in heptane) | median particle size (measured in heptane) | Span (measured in DI water) | median particle size (measured in DI water) | SMILES |
| --- | --- | --- | --- | --- |
| about 0.901 | about 1.3 microns | – | – | CC(=O)Nc1ccc(O)cc1 [Paracetomol, N-(4-hydroxyphenyl)ethanamide] |
| – | – | about 1.078 | about 3.1 microns | CC(C(=O)O)c1cccc(C(=O)c2ccccc2)c1 (racemic) [Ketoprofen, (RS)-2-(3-benzoylphenyl)propanoic acid] |
| – | – | about 0.99 | about 126 nanometers | CC(C)c1c(C(=O)Nc2ccccc2)c(-c2ccccc2)c(-c2ccc(F)cc2)n1CC[C@@H](O)C[C@@H](O)CC(=O)O [Atorvastatin, (3R,5R)-7-[2-(4-fluorophenyl)-3-phenyl-4-(phenylcarbamoyl)-5-propan-2-ylpyrrol-1-yl]-3,5-dihydroxyheptanoic acid] |
| about 0.916 | about 1.5 microns | – | – | NC(=O)N1c2ccccc2C=Cc2ccccc21 [Carbamazepine, 5H-dibenzo[b,f]azepine-5-carboxamide] |
